Test results reported in US12685733B2, “Indole molecules and use thereof in the inhibition of DNA polymerases” (BioVentures, LLC, priority 2019, dated 2026).
Where two headings read alike, the source gives them in different places.

What was measured:
[1] = test system: hpol κ-deficient HAP-1 cells; assay: Alkaline comet assay; type: cell-based, human
Procedure: (§1) To evaluate DNA damage upon treatment with TMZ and the compound IAG-10, the alkaline comet assay was performed using protocol as described by the manufacturer (Trevigen, Gaithersburg, MD). Briefly, 100 000 HAP-1 cells per well for both the hpol κ-proficient and hpol κ-deficient cell types were plated in a 12-well dish. Both types of cells were treated with 0.5 μM of IAG-10 alone or in combination with TMZ (100 μM) for 1 h. Cells treated with DMSO served as the control. Following treatment, cells were harvested, washed in ice-cold Ix PBS, and counted. The cells were then suspended in low-melting agarose to a final dilution of 200-300 cells per well on the comet slide. The comet slides with wells coated with cell/agarose mixture were incubated at 4° C. in the dark to allow the agarose to solidify before immersing the slides in proprietary lysis solution for 1 h. Each comet slide was then immersed in an alkaline unwinding solution (200 mM NaOH, 1 mM EDTA) for 20 min at RT before placing them in the electrophoresis unit in […] of the same solution. Samples were electrophoresed at 21 V for 30 min at 4° C. The comet slides were washed and dried completely at 37° C. before staining with SYBR Gold diluted in TE buffer (10 mM Tris-HCl, pH 7.5, 1 mM EDTA). The comets were visualized using an EVOS FL Auto microscope (Life Technologies, Carlsbad, CA) set at 10× magnification and were scored using CometScore software. All experiments were repeated in 3 biological replicates with at least 60 comets scored for each condition. Results were plotted using Graphpad Prism, as the percent of DNA in the tail of each comet, and statistical significance between treatment conditions was calculated using one-way ANOVA with the Bonferroni posthoc correction.

[2] = test system: hpol κ-proficient HAP-1 cells; assay: Alkaline comet assay; type: cell-based, human
Procedure: as §1

[3] = target: T1, hRev1 (Homo sapiens, UniProt Q9UBZ9); assay: Gel-based primer extension assay; type: biochemical; settings: 10 μM; 10 nM Rev1
T1 construct: hRevl (residues 330-833); made in house
T1 sequence (Q9UBZ9 330-833): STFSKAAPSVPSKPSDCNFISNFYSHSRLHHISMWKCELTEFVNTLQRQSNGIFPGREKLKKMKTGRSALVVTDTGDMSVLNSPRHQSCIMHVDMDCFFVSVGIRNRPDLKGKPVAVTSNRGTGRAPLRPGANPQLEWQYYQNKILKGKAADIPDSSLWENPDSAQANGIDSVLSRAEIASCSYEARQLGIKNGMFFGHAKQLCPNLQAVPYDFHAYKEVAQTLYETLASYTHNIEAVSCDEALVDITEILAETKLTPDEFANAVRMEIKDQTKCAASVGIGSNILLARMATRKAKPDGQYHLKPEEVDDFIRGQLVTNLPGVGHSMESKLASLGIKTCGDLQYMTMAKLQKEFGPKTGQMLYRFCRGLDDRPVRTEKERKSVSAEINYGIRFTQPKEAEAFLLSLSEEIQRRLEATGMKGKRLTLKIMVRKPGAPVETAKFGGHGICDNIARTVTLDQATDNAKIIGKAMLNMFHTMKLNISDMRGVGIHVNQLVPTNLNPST

[4] = target: T2, hpol η (Homo sapiens, UniProt Q9Y253); assay: Fluorescence-based DNA polymerase activity assay; type: biochemical; settings: for IC50: 95% confidence interval in parentheses, read-out: IC50 for inhibition of hpol η
T2 construct: hpol η (residues 1-437); made in house
T2 sequence (Q9Y253 1-437): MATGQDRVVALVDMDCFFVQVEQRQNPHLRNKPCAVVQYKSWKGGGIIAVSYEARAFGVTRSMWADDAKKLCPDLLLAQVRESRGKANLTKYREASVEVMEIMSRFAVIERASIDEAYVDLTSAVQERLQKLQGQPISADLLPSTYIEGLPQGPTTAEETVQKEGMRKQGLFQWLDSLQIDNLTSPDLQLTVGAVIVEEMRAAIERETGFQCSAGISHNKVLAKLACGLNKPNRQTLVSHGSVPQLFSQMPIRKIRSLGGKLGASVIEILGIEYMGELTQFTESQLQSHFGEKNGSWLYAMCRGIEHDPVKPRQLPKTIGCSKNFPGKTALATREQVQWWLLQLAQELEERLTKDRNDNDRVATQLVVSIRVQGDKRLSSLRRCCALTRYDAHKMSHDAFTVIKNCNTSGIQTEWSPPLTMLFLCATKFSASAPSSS
Source text: The impact of IAG-10 on the affinity of hpol κ for DNA was an important insight and one that had not been observed previously with MK-886. It was reasoned that decreasing the concentration of either enzyme or DNA, might affect the IC50 value by shifting the equilibrium away from the formation of binary hpol c: DNA complex and toward the enzyme-inhibitor complex. To investigate this idea, the concentration of hpol and p/t-DNA was varied in the reaction mixture and measured the IC50 value for IAG-10. Decreasing the enzyme and DNA in solution led to a dramatic decrease in the IC50 for IAG-10 against hpol κ (FIG. 4A). […] Then, similar experiments were performed with hpol η by varying the concentration of enzyme and DNA in the reaction mixture an determining the IC50 value for IAG-10-mediated inhibition.

[5] = target: T3, hpol ι (Homo sapiens, UniProt Q9UNA4); assay: Gel-based primer extension assay; type: biochemical; settings: 10 μM; 10 nM hpol ι
T3 construct: hpol ι (residues 1-446); made in house
T3 sequence (Q9UNA4 1-446): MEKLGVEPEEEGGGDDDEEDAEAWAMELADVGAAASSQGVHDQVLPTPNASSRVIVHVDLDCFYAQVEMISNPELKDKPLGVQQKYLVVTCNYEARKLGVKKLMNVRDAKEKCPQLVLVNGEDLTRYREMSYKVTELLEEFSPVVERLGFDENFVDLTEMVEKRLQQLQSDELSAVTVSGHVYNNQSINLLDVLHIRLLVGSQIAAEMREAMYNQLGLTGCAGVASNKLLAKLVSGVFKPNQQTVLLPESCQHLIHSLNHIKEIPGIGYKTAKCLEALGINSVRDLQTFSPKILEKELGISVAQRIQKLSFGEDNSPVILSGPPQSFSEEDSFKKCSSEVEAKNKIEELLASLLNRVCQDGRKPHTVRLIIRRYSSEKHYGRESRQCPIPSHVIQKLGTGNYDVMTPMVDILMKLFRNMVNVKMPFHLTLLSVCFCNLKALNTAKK

[6] = 100 μM TMZ + 0.5 μM IAG-10, 1 h
[7] = single agent, 1 h: 0.5 μM IAG-10 or 100 μM TMZ

## Cl.[H]/N=C(\N)NN=Cc1cn(C(=O)c2cccc3ccccc23)c2ccc(Cl)cc12 [IAG-10, (E)-2-((1-(1-naphthoyl)-5-chloro-1H-indol-3-y1)methylene)hydrazine-1-carboximidamide hydrochloride]
[1]; [6]
  DNA damage (percent DNA in the tail), combination: did not increase further
[1]; [7]
  DNA damage (percent DNA in the tail) compared to control: did not increase DNA damage over control
[2]; [6]
  DNA damage (percent DNA in the tail), combination: increased even further
[2]; [7]
  DNA damage (percent DNA in the tail) compared to control: approximately twofold
[3]
  polymerase activity relative to DMSO control: only hpol κ was inhibited
[4]; 2 nM DNA
  IC50: 22.5 µM
[4]; 50 nM DNA
  IC50: 14.3 µM
[4]; steady-state kinetics with increasing inhibitor concentration
  Michaelis constant, hpol η: linear increase
[4]; steady-state kinetics with varying inhibitor concentration
  turnover number (kcat), hpol η: no measurable change
[5]
  polymerase activity relative to DMSO control: only hpol κ was inhibited
